# Key:
# Type in all cases: cell-based, mouse
# integrins = assay: RGD or RGE peptide added to neutrophil cultures containing uPA and LPS; settings: LPS 10 ng/ml, scuPA 10 nM, peptide 50 μM, 4 hours; FIG. 7
# Experimental: (§1) Isolation of neutrophils. Neutrophils were purified from bone marrow cell suspensions as previously described by Abraham, et al., J Immunol 170:5644 (2003), Asehnoune, et al., J Immunol 172:2522 (2004), and Strassheim, et al., Am J Physiol Cell Physiol 286:C683 (2004). Briefly summarized, to obtain the bone marrow cell suspension, the femur and tibia of a mouse were flushed with 5 ml RPMI 1640/penicillin/streptomycin and the cells passed through a glass wool column, and pelleted by centrifugation at 1000 rpm for 10 minutes. The cell pellets were resuspended in 0.3% FCS/PBS and then incubated with 20 μl of primary antibodies specific for cell surface markers F4/80, CD4, CD45R, CD5, and TER19 for 15 minutes, rotating at 4° C. This custom cocktail (Stem Cell Technologies, Vancouver, British Columbia) is specific for T and B cells, RBC, monocytes and macrophages. Anti-biotin tetrameric antibody complexes (100 μl) were then added, and the cells incubated for 15 minutes, rotating at 4° C. Following this, 60 μl of colloidal magnetic dextran iron particles was added to the suspension and incubated for 15 minutes, rotating at 4° C. The entire cell suspension was then placed into a column, surrounded by a magnet. The T cells, B cells, RBC, monocytes and macrophages were captured in the column, allowing the neutrophils to pass through by negative selection methods. Neutrophil purity, as determined by Wright's stained cytospin preparations, was greater than 97%. Cell viability, as determined by trypan blue exclusion, was consistently greater than 98%.
# (§2) Real time quantitative RT-PCR. Quantitative RT-PCR to measure neutrophil cytokine expression was performed as previously described by Abraham, et al., J Immunol 170:5644 (2003), and Park, et al., Am J Physiol Cell Physiol 284:C870 (2003). […] For each mRNA detected, a fluorogenic probe and two primers (forward and reverse) for PCR were synthesized (Applied Biosystems, Foster City, Calif.). […]
# [1] = test system: LPS stimulated neutrophils; assay: LPS-induced cytokine mRNA expression in neutrophils, quantitative RT-PCR; settings: LPS 10 ng/ml, protein 10 nM, 4 hours; FIG. 1-4
# Experimental: Isolation of neutrophils. Neutrophils were purified from bone marrow cell suspensions as previously described by Abraham, et al., J Immunol 170:5644 (2003), Asehnoune, et al., J Immunol 172:2522 (2004), and Strassheim, et al., Am J Physiol Cell Physiol 286:C683 (2004). Briefly summarized, to obtain the bone marrow cell suspension, the femur and tibia of a mouse were flushed with 5 ml RPMI 1640/penicillin/streptomycin and the cells passed through a glass wool column, and pelleted by centrifugation at 1000 rpm for 10 minutes. […] Neutrophil purity, as determined by Wright's stained cytospin preparations, was greater than 97%. Cell viability, as determined by trypan blue exclusion, was consistently greater than 98%.
# as §2
# All reagents used in the one step RT-PCR reactions were purchased from Applied Biosystems. […] The amount of cytokine mRNA was determined from a standard curve with 10 fold dilutions of known amounts of target RNA for each primer and probe set. […]
# [2] = test system: LPS stimulated neutrophils; assay: Cytokine ELISA of culture supernatants of LPS stimulated neutrophils; settings: LPS 10 ng/ml, protein 10 nM, 4 hours, FIG. 5
# Experimental: as §1, with “Anti-biotin tetrameric antibody complexes (100 μl) were then added, and the cells incubated for 15 minutes, rotating at 4° C. Following this, 60 μl of colloidal magnetic dextran iron particles was added to the suspension and incubated for 15 minutes, rotating at 4° C. The entire cell suspension was then placed into a column, surrounded by a magnet. The T cells, B cells, RBC, monocytes and macrophages were captured in the column, allowing the neutrophils to pass through by negative selection methods.” left out
# Cytokine ELISA. Immunoreactive TNF-α, IL-1β, and MIP-2 were quantified using commercially available ELISA kits (R&D Systems, Minneapolis, Minn.), according to manufacturer's instructions and as described previously by Yum, et al., J Immunol 167:6601 (2001). […]
molecule,measurement,setting,value
RGD: RGD peptide that blocks interactions with integrins,"increased production of IL-1β, TNF-α, and MIP-2 produced by co-culture of LPS stimulated neutrophils with scuPA",integrins,prevented
same,uPA-induced potentiation of neutrophil responses,integrins,blocked
RGE: RGE peptide that serves as a control,uPA-induced potentiation of neutrophil responses,integrins,not
"ATF: amino terminal fragment of uPA, which contains the uPA GFD and KD","enhancement of LPS-induced cytokine mRNA expression (IL-1β, TNF-α, MIP-2) compared with scuPA",[1],to the same extent as did scuPA
"KD: purified kringle domain of uPA (amino acids 47-135), SEQ ID NO:2 epitope (protein) SKTCYEGNGHFYRGKASTDTMGRPCLPWNSATVLQQTYHAHRSDALQLGLGKHNYCRNPDNRRRPWCYVQVGLKPLVQECMVHDCA","enhancement of LPS-induced cytokine mRNA expression (IL-1β, TNF-α, MIP-2) compared with scuPA",[1],to the same extent or even a greater extent than did scuPA
same,"neutrophil production (secretion) of IL-1β, TNF-α, and MIP-2",[2],to the same extent as did intact scuPA

# Source: patent publication US8119128B2, “Antibodies that bind urokinase-type plasminogen activator and epitopes therefor” (The Regents of the University of Colorado, a body corporate, priority 2004, dated 2012)
